Where two headings read alike, the source gives them in different places.
Key:
[1] = molecular target: T1, glucagon receptor (GCGR) (Homo sapiens, UniProt P47871); experiment: I125-glucagon binding assay (competition, GCGR membrane fractions)
T1 construct: expressed in transfected cells; host or cells: CHO-K1 cells overexpressing GCGR (membrane fractions)
How it was run: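 Competition of 0.0625 nM (final) I^125-glucagon for 30 min at 25° C, after 5 min compound preincubation, using 7.5 μg/well GCGR-overexpressing CHO-K1 membranes in 50 mM Tris pH 7.4, 0.5% BSA. Filtration onto PEI-coated GF/B, micro-beta counting, and non-linear regression gave IC50.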

[2] = molecular target: T2, glucagon receptor (GCGR) overexpressed CHO-K1 cells or human primary hepatocytes (Homo sapiens, UniProt P47871); experiment: Glucagon cAMP inhibition assay (Cisbio cAMP Dynamic 2 HTRF); assay type: cell-based
T2 construct: expressed in transfected cells; host or cells: GCGR overexpressed CHO-K1 cells or human primary hepatocytes (endogenous receptor)
How it was run: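 HTRF read-out of glucagon-induced cAMP, with IC50 from non-linear regression. Cells (GCGR CHO-K1 or human primary hepatocytes) in HBSS/0.1% BSA/800 nM IBMX took compound dilutions for 30 min (final DMSO 1%), then EC50-level glucagon for 30 min at room temperature, then a 60 min lysis/detection step.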

[3] = competition with I125-glucagon 0.0625 nM, membrane fractions of GCGR overexpressed CHO-K1 cells
[4] = inhibition of glucagon (EC50 concentration) induced cAMP production

T1 sequence (P47871 26-477): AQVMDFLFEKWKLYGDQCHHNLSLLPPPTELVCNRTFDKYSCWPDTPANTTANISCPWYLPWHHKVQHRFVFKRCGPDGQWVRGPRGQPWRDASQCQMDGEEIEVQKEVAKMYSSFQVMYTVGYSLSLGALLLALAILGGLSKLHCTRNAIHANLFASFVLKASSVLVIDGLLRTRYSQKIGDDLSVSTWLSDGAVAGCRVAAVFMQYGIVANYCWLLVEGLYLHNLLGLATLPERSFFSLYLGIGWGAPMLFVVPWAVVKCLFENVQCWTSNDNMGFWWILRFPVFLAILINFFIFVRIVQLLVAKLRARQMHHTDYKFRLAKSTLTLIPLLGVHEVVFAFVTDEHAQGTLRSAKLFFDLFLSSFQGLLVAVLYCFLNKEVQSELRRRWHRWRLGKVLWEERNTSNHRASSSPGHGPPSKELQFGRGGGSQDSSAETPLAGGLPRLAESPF
T2 sequence (P47871 26-477): as above

SMILES | IC50 [1, 3] [nM] | IC50 cAMP [2, 4] [µM] | IC50 [1] [nM] | IC50 cAMP [2] [µM] | IC50 cAMP ([2]; uM) [µM]
CC[C@H](C)[C@@H](COc1cc(C)c(-c2ccc(OC(F)(F)F)cc2)c(C)c1)Nc1ccc(C(=O)NCCC(=O)O)cc1 [Compound 2-8, 3-(4-(((2S,3S)-1-((2,6-dimethyl-4′-(trifluoromethoxy)-[1,1′-biphenyl]-4-yl)oxy)-3-methylpentan-2-yl)amino)benzamido)propanoic Acid] | 627 | 0.602 |  |  | 
Cc1cc(OC[C@@H](Nc2ccc(C(=O)NCCC(=O)O)cc2)C(C)C)cc(C)c1-c1ccc(C(F)(F)F)cc1Cl [Compound 2-11, (S)-3-(4-((1-((2′-chloro-2,6-dimethyl-4′-(trifluoromethyl)-[1,1′-biphenyl]-4-yl)oxy)-3-methylbutan-2-yl)amino)benzamido)propanoic Acid] | 872 | 0.2772 |  |  | 
CC(C)[C@@H](COc1ccc(-c2ccc(N(C)C)cc2)cc1)Nc1ccc(C(=O)NC[C@@H](O)C(=O)O)cc1 [Compound 1-21, (R)-3-(4-(((S)-1-((4′-(dimethylamino)-[1,1′-biphenyl]-4-yl)oxy)-3-methylbutan-2-yl)amino)benzamido)-2-hydroxypropanoic Acid] | > 30000 | >30 |  |  | 
C[C@@H](Cc1ccc(-c2ccc(Cl)cc2Cl)cc1)Nc1ccc(C(=O)NCCC(=O)O)cc1 [Compound 19-2, (S)-3-(4-((1-(2′,4′-dichloro-[1,1′-biphenyl]-4-yl)propan-2-yl)amino)benzamido)propanoic Acid] |  |  | 6320 | 5.186 | 
CC(C)C[C@@H](COc1cnn(-c2ccc(F)cc2F)c1)Nc1ccc(C(=O)NCCC(=O)O)cc1 [Compound 9-6, (S)-3-(4-((1-((1-(2,4-difluorophenyl)-1H-pyrazol-4-yl)oxy)-4-methylpentan-2-yl)amino)benzamido)propanoic Acid] | 3650 | 5.577 |  |  | 
CC(C)C[C@@H](COc1ccc(-c2ccc(C(F)(F)F)cc2)cn1)Nc1ccc(C(=O)NCCC(=O)O)cc1 [Compound 15-11, (S)-3-(4-((4-methyl-1-((5-(4-(trifluoromethyl)phenyl)pyridin-2-yl)oxy)pentan-2-yl)amino)benzamido)propanoic Acid] |  |  | 210 | 0.2847 | 
CC(C)[C@@H](COc1ccc(-c2ccc(C(F)(F)F)cc2F)c(F)c1)Nc1ccc(C(=O)NCCS(=O)(=O)O)cc1 [Compound 8-2, (S)-2-(4-((1-((2,2′-difluoro-4′-(trifluoromethyl)-[1,1′-biphenyl]-4-yl)oxy)-3-methylbutan-2-yl)amino)benzamido)ethane-1-sulfonic Acid] | 1710 | 12.144 |  |  | 
CC(C)C[C@@H](COc1ccc(-c2ccc(C(F)(F)F)cc2)nn1)Nc1ccc(C(=O)NCCC(=O)O)cc1 [Compound 17-7, (S)-3-(4-((4-methyl-1-((6-(4-(trifluoromethyl)phenyl)pyridazin-3-yl)oxy)pentan-2-yl)amino)benzamido)propanoic Acid] | 1320 | 7.647 |  |  | 
CC(C)[C@@H](COc1cc(F)c(-c2ccc(C(F)(F)F)cc2)c(F)c1)Nc1ccc(C(=O)NCCC(=O)O)cc1 [Compound 7-3, (S)-3-(4-((1-((2,6-difluoro-4′-(trifluoromethyl)-[1,1′-biphenyl]-4-yl)oxy)-3-methylbutan-2-yl)amino)benzamido)propanoic Acid] | 107 | 0.14 |  |  | 
CC(C)(C)[C@@H](COc1ccc(-c2ccc(Cl)cc2Cl)c(F)c1)Nc1ccc(C(=O)NCCC(=O)O)cc1 [Compound 8-22, (S)-3-(4-((1-((2′,4′-dichloro-2-fluoro-[1,1′-biphenyl]-4-yl)oxy)-3,3-dimethylbutan-2-yl)amino)benzamido)propanoic Acid] | 68 | 0.1669 |  |  | 
CCCC[C@@H](COc1ccc(-c2cc(Cl)cc(Cl)c2)nc1)Nc1ccc(C(=O)NCCC(=O)O)cc1 [Compound 10-10, (S)-3-(4-((1-((6-(3,5-dichlorophenyl)pyridin-3-yl)oxy)hexan-2-yl)amino)benzamido) propanoic Acid] | 314 | 0.493 |  |  | 
CC(C)[C@@H](COc1ccc(-c2nc3ccccc3s2)c(F)c1)Nc1ccc(C(=O)NCCC(=O)O)cn1 [Compound 9-5, (S)-3-(6-((1-(4-(benzo[d]thiazol-2-yl)-3-fluorophenoxy)-3-methylbutan-2-yl)amino)nicotinamido)propanoic Acid] | 606 | 2.408 |  |  | 
CCCC[C@@H](COc1ccc(-c2cc3ccccc3o2)nc1)Nc1ccc(C(=O)NCCC(=O)O)cc1 [Compound 10-12, (S)-3-(4-((1-((6-(benzofuran-2-yl)pyridin-3-yl)oxy)hexan-2-yl)amino)benzamido)propanoic Acid] | 181 | 0.7916 |  |  | 

Second part, the compound after the results:

IC50 [1, 3] [nM] | IC50 cAMP [2, 4] [µM] | IC50 [1] [nM] | IC50 cAMP [2] [µM] | IC50 cAMP ([2]; uM) [µM] | SMILES
 |  | 2670 | 2.029 |  | CCCOC[C@H](Cc1ccc(-c2ccc(Cl)cc2Cl)cc1)Nc1ccc(C(=O)NCCC(=O)O)cc1 [Compound 19-15, (S)-3-(4-((1-(2′,4′-dichloro-[1,1′-biphenyl]-4-yl)-3-propoxypropan-2-yl)amino)benzamido)propanoic Acid]
 |  | 4100 |  | >10 | CCOC(=O)CCNC(=O)c1ccc(N[C@H](Cc2ccc(-c3cc4ccccc4o3)cc2)C(=O)NC(C)C)cc1 [Compound 24-21, Ethyl (R)-3-(4-((3-(4-(benzofuran-2-yl)phenyl)-1-(isopropylamino)-1-oxopropan-2-yl)amino)benzamido)propanoate]
 |  | 80 | 3.5 |  | CC(C)C[C@H](Nc1ccc(C(=O)NCCC(=O)O)cc1)C(=O)Nc1ccc(-c2cc3ccccc3o2)cc1 [Compound 23-5, (S)-3-(4-((1-((4-(benzofuran-2-yl)phenyl)amino)-4-methyl-1-oxopentan-2-yl)amino)benzamido)propanoic Acid]
 |  | > 30000 | >30 |  | CC(C)[C@@H](COc1nnc(-c2ccc(C(F)(F)F)cc2)o1)Nc1ccc(C(=O)NCCC(=O)O)cc1 [Compound 22-13, (S)-3-(4-((3-methyl-1-((5-(4-(trifluoromethyl)phenyl)-1,3,4-oxadiazol-2-yl)oxy)butan-2-yl)amino)benzamido)propanoic Acid]
803 | 0.1704 |  |  |  | CCCC[C@@H](Cc1noc(-c2ccc(C(C)(C)C)cc2)n1)Nc1ccc(C(=O)NCCC(=O)O)cc1 [Compound 21-1, (S)-3-(4-((1-(5-(4-(tert-butyl)phenyl)-1,2,4-oxadiazol-3-yl)hexan-2-yl)amino)benzamido)propanoic Acid]
 |  | 444 | 0.787 |  | CCCOC[C@H](Cc1ccc(-c2ccc(OC(F)(F)F)cc2)cc1)Nc1ccc(C(=O)NCCC(=O)O)cc1 [Compound 19-14, (S)-3-(4-((1-propoxy-3-(4′-(trifluoromethoxy)-[1,1′-biphenyl]-4-yl)propan-2-yl)amino)benzamido)propanoic Acid]
 |  | 186 | 15.397 |  | CCCC[C@H](Nc1ccc(C(=O)NCCC(=O)O)cc1)C(=O)Nc1ccc(-c2cc3ccccc3o2)cc1 [Compound 23-35, (S)-3-(4-((1-((4-(benzofuran-2-yl)phenyl)amino)-1-oxohexan-2-yl)amino)benzamido) propanoic Acid]

Source: patent US11384060B2, “Amide compounds and use thereof” (ALPHALA CO., LTD., priority 2017, dated 2022)
